Reference: patent US20230240953A1, “AN ANTIMICROBIAL COMPOSITION, PROCESS FOR PREPARING THE SAME AND METHOD OF USE THEREOF” (ISP INVESTMENTS LLC, priority 2020, published 2023)
Converted amounts (≈) assume the structure as drawn.

Tests used:
Assay type in all cases: cell-based
[1] = tested on: Burkholderia cepacia 25416; assay: Checkerboard microplate synergy assay, compound A = HPB; conditions: for Interaction / SI index (Synergy Index = Qa/QA+Qb/QB): HPB + compound B
Protocol: (§1) The synergistic antimicrobial effect was determined using a commonly accepted method described by Kull A. C, Eisman, P. C. Sylwestrowicz, H. D. and Mayer, R. L. 1961. Applied Microbiology, 9:538-541
(§2) Briefly, the standard checkerboard approach was used to make all the dilutions. HPB (compound A) solution was prepared and then serially diluted in DMSO using the 96-well dilution plate. Automated liquid handler was then used to stamp multiple assay plates using this dilution plate. Each well of the assay plate was then supplemented with a predetermined concentration of the second antimicrobial (compound B). The final concentration of DMSO was kept constant across the plate for each assay, not exceeding 3% (w/w).
(§3) To evaluate antibacterial activity of the actives, freshly prepared S. aureus and B. cepacia cells were harvested and resuspended in Trypticase Soy Broth (TSB). The cell suspension was then added to the wells of the appropriate plates with the final cell density being 10^6 cfu/ml. Fungal plates were incubated at 28° C. for 4-5 days, prior to being evaluated. Bacterial plates were incubated for 48 hours at 35° C. prior to being evaluated.
(§4) Synergy Index (SI)=Qa/QA+Qb/QB • Qa is the MIC of compound A (HPB) in ppm, when compound A is being used in combination with compound B • QA is the MIC of compound A (HPB) in ppm, acting alone • Qb is the MIC of compound B in ppm, when the compound B is being used in combination with compound A • QB is the MIC of compound B in ppm, acting alone Each ratio Qa/QA and Qb/QB is sometimes referred to as Fractional Inhibitory Concentrations (FICs) of compounds A and B, respectively, when these two compounds are being used in combination with one another. The sum of FICs constitute the Synergy Index (SI). The synergistic effect is indicated if the Synergy Index is below one (SI<1). An additive effect is indicated if the Synergy Index is equal to one (SI=1). An antagonistic effect is indicated if synergy index is greater than one (SI>1). The lower the SI index the greater the synergy.

[2] = tested on: Aspergillus brasiliensis 16404; assay: as above; set-up: key to SI index (Synergy Index = Qa/QA+Qb/QB): SI = Qa/QA + Qb/QB (MICs in ppm); <1 synergy, =1 additive, >1 antagonism; conditions: for Interaction / SI index (Synergy Index = Qa/QA+Qb/QB): HPB + compound B
Protocol: as §1, §2
To evaluate antifungal activity of the actives, freshly prepared A. brasiliensis spores were harvested and resuspended in Yeast and Malt Broth (YMB). The spore suspension was then added to the appropriate plates with the final density being 10^5 cfu/ml.
as §3, §4

[3] = tested on: Staphylococcus aureus 6538; assay: as above; conditions: for Interaction / SI index (Synergy Index = Qa/QA+Qb/QB): HPB + compound B
Protocol: as §1, §2, §3, §4

[4] = tested on: Aspergillus brasiliensis 16404; assay: Minimal inhibitory concentration (MIC), microplate broth dilution; conditions: YMB, 10^5 cfu/ml, 4-5 days at 28° C., read-out: Minimal Inhibitory Concentrations (MICs) mean values, A. brasiliensis
Protocol: (§5) Briefly, each active was dissolved and then serially diluted in DMSO using a 96-well dilution microplate. Automated liquid handler was then used to stamp multiple assay plates out of this dilution plate. The appropriate growth medium containing a desired microorganism was then added to each well of the plate. For bacterial strains, Trypticase Soy Broth (TSB) was used with the final cell density of the microorganisms, in each well, being 10^6 cfu/ml. For fungal strains, Yeast Malt Broth (YMB) was used with the final density of each microorganism being 10^5 cfu/ml. Bacterial plates were incubated for 48 hours at 35° C. and fungal plates were incubated for 4-5 days at 28° C. prior to being evaluated. The lowest concentration of each compound to inhibit any visible growth was defined as minimum inhibitory concentration (MIC). In some cases, the highest tested concentration of the active was limited by its solubility in water. Whenever MIC was greater than the highest tested concentration, it was reported as being equal to, or greater than (>) the previous hypothetical dilution.

[5] = tested on: Burkholderia cepacia 25416; assay: as above; conditions: TSB, 10^6 cfu/ml, 48 hours at 35° C., read-out: Minimal Inhibitory Concentrations (MICs) mean values, B. cepacia
Protocol: as §5

Candida albicans 10231 = assay: as above; conditions: YMB, 10^5 cfu/ml, 4-5 days at 28° C., read-out: Minimal Inhibitory Concentrations (MICs) mean values, C. albicans
Protocol: as §5

Escherichia coli 8739 = assay: as above; conditions: TSB, 10^6 cfu/ml, 48 hours at 35° C., read-out: Minimal Inhibitory Concentrations (MICs) mean values, E. coli
Protocol: as §5

[6] = tested on: Pseudomonas aeruginosa 9027; assay: as above; conditions: TSB, 10^6 cfu/ml, 48 hours at 35° C., read-out: Minimal Inhibitory Concentrations (MICs) mean values, P. aeruginosa
Protocol: as §5

[7] = tested on: Staphylococcus aureus 6538; assay: as above; conditions: TSB, 10^6 cfu/ml, 48 hours at 35° C., read-out: Minimal Inhibitory Concentrations (MICs) mean values, S. aureus
Protocol: as §5

[8] = Aspergillus brasiliensis, 16404, compound B alone, read-out: Compound B (Qb): MIC of compound B acting alone
[9] = Staphylococcus aureus, 6538, S. aureus, compound B alone, read-out: Compound B (QB): MIC of compound B acting alone
[10] = Burkholderia cepacia, 25416, B. cepacia, compound B alone, read-out: Compound B (Qb): MIC of compound B acting alone

Compound | Interaction ([1]; B. cepacia) | SI index (Synergy Index = Qa/QA+Qb/QB) ([1]; B. cepacia) | Compound B (Qb): MIC of compound B when used in combination with HPB ([1]; B. cepacia) | MIC [2, 8] [µg/mL] | Interaction [2] | SI index (Synergy Index = Qa/QA+Qb/QB) [2] | Compound B (Qb): MIC of compound B when used in combination with HPB [2] | Interaction ([3]; S. aureus) | SI index (Synergy Index = Qa/QA+Qb/QB) ([3]; S. aureus) | Compound B (Qb): MIC of compound B when used in combination with HPB ([3]; S. aureus) | MIC [3, 9] [µg/mL] | other results
[F-].[Na+] [Sodium fluoride] | synergistic | ≤0.625 | 10,000 ppm | – | – | – | – | – | – | – | – | Compound B (QB): MIC of compound B acting alone ([1]; B. cepacia, compound B alone): ≥200,000 ppm
OCc1ccccc1 [Benzyl alcohol] | – | – | – | 5000 | Synergistic (The synergistic effect is indicated if the Synergy Index is below one (SI<1)) | 0.75 | 2,500 ppm | synergistic | ≤0.625 | 625 ppm | 5000 | –
COc1ccc(CCC(C)=O)cc1 [Raspberry ketone methyl ether, 4-(4-methoxyphenyl)butan-2-one] | – | – | – | – | – | – | – | – | – | – | – | MIC [4]: 1000 µg/mL (≈ 5.61 mM); MIC [5]: 1000 µg/mL (≈ 5.61 mM); MIC (Candida albicans 10231): 2000 µg/mL (≈ 11.2 mM); MIC (Escherichia coli 8739): 2000 µg/mL (≈ 11.2 mM); MIC [6]: 4000 µg/mL (≈ 22.4 mM); MIC [7]: 28000 µg/mL (≈ 157 mM)
CCCCNC(=O)OCC#CI [lodopropynyl butylcarbamate (IPBC), lodopropynyl butylcarbamate] | synergistic | 0.508 | 2 ppm | – | – | – | – | – | – | – | – | Compound B (QB): MIC of compound B acting alone ([1]; B. cepacia, compound B alone): 250 ppm
CC(=O)CCc1ccc(O)cc1 [Raspberry ketone, 4-(4-hydroxyphenyl) butan-2-one] | – | – | – | – | – | – | – | – | – | – | – | MIC [4]: 4000 µg/mL (≈ 24.4 mM); MIC [5]: 2000 µg/mL (≈ 12.2 mM); MIC (Candida albicans 10231): 4000 µg/mL (≈ 24.4 mM); MIC (Escherichia coli 8739): 4000 µg/mL (≈ 24.4 mM); MIC [6]: 4000 µg/mL (≈ 24.4 mM); MIC [7]: 28000 µg/mL (≈ 171 mM); MIC ([2]; Aspergillus brasiliensis, 16404, HPB alone, read-out: HPB (QA): MIC of HPB acting alone): 4000 µg/mL; MIC ([1]; Burkholderia cepacia, 25416, B. cepacia, HPB alone, read-out: HPB (QA): MIC of HPB acting alone): 2000 µg/mL; MIC ([3]; Staphylococcus aureus, 6538, S. aureus, HPB alone, read-out: HPB (QA): MIC of HPB acting alone): ≥ 8000 µg/mL
CCCCCCCC(=O)NO [Caprylhydroxamic acid] | synergistic | 0.75 | 31.3 ppm | 250 | Synergistic (The synergistic effect is indicated if the Synergy Index is below one (SI<1)) | 0.5625 | 125 ppm | synergistic | ≤0.625 | 125 ppm | 1000 | MIC [1, 10]: 125 µg/mL
OCCc1ccccc1 [Phenethyl alcohol] | synergistic | 0.625 | 125 ppm | – | – | – | – | synergistic | ≤0.75 | 2,000 ppm | ≥ 4000 | MIC [1, 10]: 1000 µg/mL
COc1ccc(C=O)cc1OC [Veratraldehyde] | synergistic | 0.75 | 1000 ppm | 2000 | Synergistic (The synergistic effect is indicated if the Synergy Index is below one (SI<1)) | 0.625 | 1,000 ppm | synergistic | ≤0.625 | 1,000 ppm | – | MIC ([1]; Burkholderia cepacia, 25416, read-out: Compound B (Qb): MIC of compound B acting alone): 2000 µg/mL; MIC ([3]; Staphylococcus aureus, 6538, read-out: Compound B (QB): MIC of compound B acting alone): ≥ 8000 µg/mL
CC(=O)/C=C/c1ccc(O)cc1 [4-Hydroxybenzylideneacetone, (E)-4-(4-hydroxyphenyl)but-3-en-2-one] | – | – | – | – | – | – | – | – | – | – | – | MIC [4]: 1000 µg/mL (≈ 6.17 mM); MIC [5]: 1000 µg/mL (≈ 6.17 mM); MIC (Candida albicans 10231): 500 µg/mL (≈ 3.08 mM); MIC (Escherichia coli 8739): 2000 µg/mL (≈ 12.3 mM); MIC [6]: 4000 µg/mL (≈ 24.7 mM); MIC [7]: 500 µg/mL (≈ 3.08 mM)
CCCCCCCCCCCCCC[N+](C)(C)C.[Br-] [Tetradecyl trimethyl ammonium bromide] | synergistic | 0.625 | 6.3 ppm | 25 | Synergistic (The synergistic effect is indicated if the Synergy Index is below one (SI<1)) | 0.375 | 3.1 ppm | synergistic | ≤0.5 | 0.4 ppm | 1.6 | MIC [1, 10]: 50 µg/mL
OCCCc1ccccc1 | synergistic | 0.75 | 156 ppm | – | – | – | – | synergistic | ≤0.5625 | 156 ppm | – | Compound B (QB): MIC of compound B acting alone ([1]; B. cepacia, compound B alone): 625 ppm; Compound B (QB): MIC of compound B acting alone ([3]; S. aureus, compound B alone): 2,500 ppm
